Molecular target: T1, Recombinant His6-tagged IDE (Homo sapiens, UniProt P14735)
T1 construct: made in house; host or cells: E. coli Rosetta 2 (DE3) pLysS, plasmid pTrcHis-A
T1 sequence (P14735 42-1019): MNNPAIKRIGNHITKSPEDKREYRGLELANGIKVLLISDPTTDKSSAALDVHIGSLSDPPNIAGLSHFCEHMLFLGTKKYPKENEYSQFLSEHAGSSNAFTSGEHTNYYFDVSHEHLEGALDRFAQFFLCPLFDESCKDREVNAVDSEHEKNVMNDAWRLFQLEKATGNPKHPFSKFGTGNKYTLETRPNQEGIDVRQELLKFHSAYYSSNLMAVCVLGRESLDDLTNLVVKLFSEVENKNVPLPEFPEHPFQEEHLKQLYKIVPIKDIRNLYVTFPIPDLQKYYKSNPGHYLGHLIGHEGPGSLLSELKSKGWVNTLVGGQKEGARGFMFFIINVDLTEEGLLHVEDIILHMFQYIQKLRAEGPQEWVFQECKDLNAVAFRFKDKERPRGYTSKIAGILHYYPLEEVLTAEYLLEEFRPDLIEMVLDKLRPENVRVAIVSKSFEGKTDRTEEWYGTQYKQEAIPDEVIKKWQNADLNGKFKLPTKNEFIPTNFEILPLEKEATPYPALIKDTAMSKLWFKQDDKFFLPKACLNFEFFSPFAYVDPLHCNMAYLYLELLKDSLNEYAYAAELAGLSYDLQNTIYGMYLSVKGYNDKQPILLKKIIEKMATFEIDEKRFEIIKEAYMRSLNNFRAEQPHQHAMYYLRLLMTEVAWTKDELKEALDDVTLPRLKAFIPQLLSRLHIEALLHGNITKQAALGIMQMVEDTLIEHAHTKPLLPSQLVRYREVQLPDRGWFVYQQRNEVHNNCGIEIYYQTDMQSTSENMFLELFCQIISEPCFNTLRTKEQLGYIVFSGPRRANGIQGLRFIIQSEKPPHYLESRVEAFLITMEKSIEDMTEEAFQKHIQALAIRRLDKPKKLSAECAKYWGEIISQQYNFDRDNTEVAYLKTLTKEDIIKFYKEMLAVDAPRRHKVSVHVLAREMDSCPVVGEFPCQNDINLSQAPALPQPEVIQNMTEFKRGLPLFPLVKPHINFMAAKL
Assay: IDE protease activity assay with fluorogenic peptide substrate Mca-RPPGFSAFK(Dnp)-OH
Type: biochemical
Details: inhibitor 20 μM final; purified recombinant His6-tagged IDE proteins
Experimental: Recombinant His6-tagged IDE and IDE-A479L were purified by Ni(II)-affinity chromatography (IMAC sepharose beads, GE Healthcare®) according to the manufacturer's instructions. The cell pellets were resuspended in pH 8.0 buffer containing 50 mM phosphate, 300 mM NaCl, 10 mM imidazole, 1% Triton X-100 and 1 mM tris(2-carboxyethyl)phosphine hydrochloride (TCEP), and were lysed by probe sonication for 4 min at <4° C., followed by clearing of cell debris by centrifugation at 10,000 g for 25 min at 4° C. The supernatant was incubated with Ni(II)-doped IMAC resin (2 mL) for 3 h at 4° C. The resin was washed twice with the cell resuspension/lysis buffer, and three times with pH 8.0 buffer containing 50 mM phosphate, 300 mM NaCl, 50 mM imidazole and 1 mM TCEP. Elution was performed in 2 mL aliquots by raising the imidazole concentration to 250 mM and subsequently to 500 mM in the previous buffer. The fractions were combined and the buffer was exchanged to the recommended IDE buffer (R&D) using spin columns with 100 KDa molecular weight cut off membranes (Millipore). Protein yields were typically ˜10 μg/L, and >90% purity based on gel electrophoresis analysis (Coomassie stained).

NCCCC[C@@H]1NC(=O)/C=C/C(=O)N[C@H](C(N)=O)CCCCNC(=O)[C@@H](Cc2ccc(C(=O)c3ccccc3)cc2)NC(=O)[C@H](CC2CCCCC2)NC1=O [6bK]
IDE-specific protease activity as assessed by inhibition of degradation of peptide substrate Mca-RPPGFSAFK(Dnp)-OH: > 95%
